Assay results: paper PMC11760891, “Discovery and Characterization of Two Selective Inhibitors for a Mu-Class Glutathione S-Transferase of 25 kDa from Taenia solium Using Computational and Bioinformatics Tools” (Biomolecules, 2024)

How the values were obtained:
Ts25GST = biological target: T1, Ts25GST (Taenia solium, UniProt Q8MWS0); experiment: GSH-CDNB conjugation, absorbance […] nm, dose-response; format: biochemical
T1 construct: about 25 kDa on SDS-PAGE; dimer; no tag mentioned
T1 sequence (Q8MWS0 1-219): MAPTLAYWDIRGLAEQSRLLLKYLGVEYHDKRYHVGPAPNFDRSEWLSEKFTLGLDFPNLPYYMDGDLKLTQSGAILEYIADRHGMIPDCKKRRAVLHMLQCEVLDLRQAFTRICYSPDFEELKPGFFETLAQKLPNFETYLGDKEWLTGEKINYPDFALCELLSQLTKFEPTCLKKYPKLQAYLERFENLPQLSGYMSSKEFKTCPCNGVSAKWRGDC

HGSTM1 = biological target: T2, HGSTM1 (Homo sapiens, UniProt P09488); experiment: GSH-CDNB conjugation, absorbance […] nm, single concentration; format: biochemical
T2 construct: gene GSTM1; commercial human GST M1 (Oxford Biomedical Research GS65)
T2 sequence (P09488 2-218): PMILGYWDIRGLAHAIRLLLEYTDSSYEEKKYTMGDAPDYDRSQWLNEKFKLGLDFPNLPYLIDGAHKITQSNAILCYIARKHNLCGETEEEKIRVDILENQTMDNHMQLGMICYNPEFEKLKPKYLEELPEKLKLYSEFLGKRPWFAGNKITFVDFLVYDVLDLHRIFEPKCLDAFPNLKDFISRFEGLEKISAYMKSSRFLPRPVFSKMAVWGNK

SMILES	IC50 (Ts25GST) [µM]	inhibition at 40 µM (HGSTM1) [%]
O=C(CCN1C(=O)c2ccccc2C1=O)Nc1ccc(Nc2ccccc2)cc1 [i15]	25.7 ± 1.1	30.8 ± 1.9
O=C(CSc1ncc(-c2ccccc2)nn1)NC1=NN=C(c2ccccc2)CS1 [i11]	–	33.4 ± 2.2
